# Measured values: the supplement of paper PMC10307832
# Columns and labels:
# Assay in all cases: relative viability (nuclei count vs DMSO), 5 days (fraction); higher = more cells survive
# Vemurafenib + Tozasertib = compound: CCCS(=O)(=O)Nc1ccc(F)c(C(=O)c2c[nH]c3ncc(-c4ccc(Cl)cc4)cc23)c1F [Vemurafenib] + Cc1cc(Nc2cc(N3CCN(C)CC3)nc(Sc3ccc(NC(=O)C4CC4)cc3)n2)n[nH]1 [Tozasertib] (partner 0.1 µM)
# Outline: (§1)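 Lung cancer cell lines in 1536-well plates were dosed by pin tool the day after seeding, either with one drug alone or with a fixed anchor-drug dose plus five library-drug doses (not always all listed) in √10 steps. After 5 days, cells were fixed and their nuclei stained in one step (final 0.05% Triton X-100, 1% formaldehyde, 1 ug/ml Hoechst), then counted on 4× images. Relative viability is the nuclei count in treated wells divided by that in vehicle wells. Values are medians of duplicate plates.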
# OSI-027 + Trametinib = compound: COc1cccc2cc(-c3nc([C@H]4CC[C@H](C(=O)O)CC4)n4ncnc(N)c34)[nH]c12 [OSI-027] + CC(=O)Nc1cccc(-n2c(=O)n(C3CC3)c(=O)c3c(Nc4ccc(I)cc4F)n(C)c(=O)c(C)c32)c1 [Trametinib] (partner 0.02 µM)
# Outline: as §1
# OSI-027 + Dasatinib = compound: COc1cccc2cc(-c3nc([C@H]4CC[C@H](C(=O)O)CC4)n4ncnc(N)c34)[nH]c12 [OSI-027] + Cc1nc(Nc2ncc(C(=O)Nc3c(C)cccc3Cl)s2)cc(N2CCN(CCO)CC2)n1 [Dasatinib] (partner 0.075 µM)
# Outline: as §1
# Alpelisib + OSI-027 = compound: Cc1nc(NC(=O)N2CCC[C@H]2C(N)=O)sc1-c1ccnc(C(C)(C)C(F)(F)F)c1 [Alpelisib] + COc1cccc2cc(-c3nc([C@H]4CC[C@H](C(=O)O)CC4)n4ncnc(N)c34)[nH]c12 [OSI-027] (partner 0.5 µM)
# Outline: as §1
Cell Line,relative viability (Vemurafenib + Tozasertib; first compound 0.03162 µM),relative viability (Vemurafenib + Tozasertib; first compound 0.3162 µM),relative viability (Vemurafenib + Tozasertib; first compound 1 µM),relative viability (OSI-027 + Trametinib; first compound 0.01 µM),relative viability (OSI-027 + Trametinib; first compound 0.03162 µM),relative viability (OSI-027 + Trametinib; first compound 0.1 µM),relative viability (OSI-027 + Trametinib; first compound 0.3162 µM),relative viability (OSI-027 + Trametinib; first compound 1 µM),relative viability (OSI-027 + Dasatinib; first compound 0.01 µM),relative viability (OSI-027 + Dasatinib; first compound 0.03162 µM),relative viability (OSI-027 + Dasatinib; first compound 0.1 µM),relative viability (OSI-027 + Dasatinib; first compound 0.3162 µM),relative viability (OSI-027 + Dasatinib; first compound 1 µM),relative viability (Alpelisib + OSI-027; first compound 0.04 µM),relative viability (Alpelisib + OSI-027; first compound 0.1265 µM),relative viability (Alpelisib + OSI-027; first compound 0.4 µM),relative viability (Alpelisib + OSI-027; first compound 1.265 µM),relative viability (Alpelisib + OSI-027; first compound 4 µM),relative viability (Vemurafenib + Tozasertib; first compound 0.1 µM)
NCI-H1793,0.288,0.323,0.264,0.489,0.431,0.35,0.344,0.21,0.352,0.391,0.389,0.279,0.193,0.284,0.24,0.228,0.195,0.161,–
NCI-H2405,0.756,–,0.717,0.643,0.663,0.597,0.471,0.373,0.2,0.204,0.185,0.209,0.178,0.588,0.534,0.639,0.417,0.384,0.708
NCI-H727,0.506,0.808,0.775,0.346,0.412,0.349,0.387,0.395,0.368,1.04,0.354,0.394,0.339,0.753,0.397,0.522,0.359,0.391,0.584
201T,0.95,0.925,0.975,0.742,0.716,0.717,0.717,0.674,0.594,0.567,0.588,0.504,0.398,0.811,0.566,0.661,0.471,0.402,0.915
H3255,0.603,0.644,0.619,0.527,0.594,0.514,0.476,0.414,0.291,0.377,0.388,0.292,0.217,0.526,0.583,0.635,0.363,0.384,–
NCI-H1395,0.722,–,0.779,1.1,1.02,0.957,0.863,0.648,0.385,0.398,0.373,0.341,0.343,0.593,0.558,0.717,0.588,0.634,0.815
NCI-H1355,0.545,0.56,0.435,0.401,0.458,0.341,0.3,0.252,0.718,0.564,0.534,0.409,0.324,0.406,0.325,0.311,0.285,0.235,0.559
HCC-827,0.397,0.42,0.41,0.555,0.491,0.45,0.433,0.309,0.298,0.295,0.326,0.226,0.222,0.808,0.803,0.689,0.57,0.384,–
NCI-H2085,0.754,0.802,0.508,0.504,0.514,0.429,0.313,0.281,0.199,0.222,0.188,0.227,0.211,0.826,0.658,0.709,0.585,0.574,0.727
NCI-H1755,0.516,0.555,0.53,0.738,0.759,0.761,0.654,0.501,0.392,0.458,0.39,0.42,0.229,0.684,0.575,0.719,0.55,0.509,0.562
PC-14,0.557,0.376,0.551,0.793,0.934,0.71,0.649,0.282,0.237,0.253,0.241,0.303,0.197,0.865,0.83,0.985,0.574,0.467,–
NCI-H3122,0.398,0.371,0.365,0.273,0.238,0.178,0.191,0.097,0.831,0.844,0.923,0.631,0.391,0.928,0.791,0.648,0.37,0.176,0.335
SK-LU-1,0.255,0.294,0.298,0.458,0.491,0.457,0.334,0.327,0.169,0.172,0.178,0.127,0.134,0.378,0.297,0.29,0.219,0.201,0.283
HCC-44,0.829,–,0.763,1.04,1.07,1.05,0.942,0.795,–,–,–,–,–,0.519,0.419,0.541,0.307,0.451,0.917
NCI-H460,0.389,–,0.156,0.152,0.13,0.145,0.129,0.12,0.568,0.462,0.37,0.243,0.158,0.545,0.623,0.534,0.242,0.137,0.28
NCI-H1563,–,–,–,–,–,–,–,–,0.444,0.467,0.447,0.457,0.454,0.743,0.774,0.7,0.584,0.541,–
NCI-H1623,0.409,0.452,0.41,–,–,–,–,–,0.52,0.607,0.455,0.365,0.275,0.494,0.338,0.383,0.34,0.28,–
NCI-H1648,0.489,0.962,0.477,0.481,0.449,–,0.49,0.321,–,–,–,–,–,–,0.229,0.244,0.282,0.228,–
ABC-1,0.151,0.181,0.202,–,–,–,–,–,0.656,0.516,0.384,0.486,0.216,0.475,0.347,0.418,0.283,0.356,0.174
